Laboratory results from patent publication US10882860B2, “Treatment of osteoarthritis” (Samumed, LLC, priority 2015, dated 2021).
Read-outs that look alike come from different tables or passages of the source.

How the values were obtained:
[1] = test system: rats that underwent ACLT combined with medial meniscectomy (MMx); assay: Efficacy of suspension in rat ACLT + pMMx model (OARSI score); assay type: in vivo; conditions: for OARSI score: vehicle 4.43
Experimental: The efficacy of the compound of Formula (I) on increasing cartilage thickness was determined in rats that underwent anterior cruciate ligament transection (ACLT) combined with medial meniscectomy (MMx).
Female rats (10-12 weeks old) were subjected to surgical severing of the anterior cruciate, medial collateral and medial meniscotibial ligaments (ACLT+pMMx). One-week post-surgery, after cartilage was allowed to degenerate, the rats were injected intra-articular (IA) with a single dose of a suspension of the compound of Formula (I) (0.1 μg or 0.3 μg or 1 μg). On Days 30, 60, and 90 after injection, joint cartilage, bone and plasma was isolated. Compound from these tissues was extracted using acetonitrile-methanol (70:30) and analyzed for concentrations using LC-MS.
13 weeks after the surgery (12 weeks post-IA injection), knees were isolated, fixed in 10% formalin, decalcified, embedded in paraffin, and sectioned. Sections were stained with Safranin O-Fast Green and histologically evaluated by two blinded observers based on OARSI scoring system (Pritzker et al. (2006) Osteoarthr. Cartil. 14:13-29). The OARSI score measures cartilage matrix loss, fissures, subchondral bone remodeling and bone cyst formation.

[2] = Rat pharmacokinetics after IA injection (plasma, knee joint); assay type: in vivo, Sprague Dawley rats; conditions: for concentration at 30 day / concentration at 90 day / concentration at 180 day: Sprague Dawley; for concentration at 30 day / concentration at 90 day / concentration at 180 day / Formula (I) concentration, Bone / Formula (I) concentration, Cartilage / Formula (I) concentration, Plasma: rats, single IA; for Formula (I) concentration, Plasma: QL = 5 ng/mL
Experimental: In rats and dogs, the pharmacokinetic profile, safety profile, tissue distribution and cartilage regeneration following a single intra-articular (IA) injection of the compound of Formula (I) in the plasma and the knee joint (cartilage and bone) was determined. The compound of Formula (I) (Form 1) was formulated as a suspension composition in 0.5% CMC/0.05% Polysorbate 80 in PBS.
The pharmacokinetics of the compound of Formula (I) in rats was studied. Three Sprague Dawley rats were each injected with a single intra-articular (IA) injection (one IA injection per knee) of a suspension composition of the compound of Formula (I) (Form 1) at 0.3, 1, 3 and 9 μg/knee. Plasma was collected beginning at 15 minutes post-dose on Day 1 and the knee joint was collected at Days 30, 90, and 180 post-IA administration. The bone and cartilage tissues from the knee joint were segregated and concentrations analyzed. The compound was retained in the knee joint above the target concentration level (˜30 nM, the intended clinical therapeutic dose) for greater than 180 days and was undetectable in the plasma at all time points.

CC(C)CC(=O)Nc1cncc(-c2ccc3[nH]nc(-c4nc5c(-c6cccc(F)c6)cncc5[nH]4)c3c2)c1 [compound of Formula (I)]
OARSI score ([1]; rat ACLT+pMMx, single IA 0.1 μg suspension, 12 weeks post-injection): 3.13
OARSI score ([1]; rat ACLT+pMMx, single IA 0.3 μg suspension, 12 weeks post-injection): 2.15
total OARSI score (against vehicle) ([1]; rat ACLT+pMMx, 0.1, 0.3 or 1 μg, 12 weeks post-injection): dose-dependent reduction
knee histology (Safranin O-Fast Green) ([1]; rat ACLT+pMMx, single IA injection, 12 weeks post-injection): Increased cartilage thickness, decreased fissures, and subchondral bone remodeling
cartilage in safranin O-stained knee section vs control knee ([1]; rat, 0.3 μg, after 12 weeks, FIG. 23B): increased cartilage
concentration at 30 day ([2]; rat, bone, other: intra-articular injection, 1 μg/knee, Day 30, read-out: Formula (I) concentration, Bone): 196 ng/g
concentration at 90 day ([2]; rat, bone, other: intra-articular injection, 1 μg/knee, Day 90, read-out: Formula (I) concentration, Bone): 44.4 ng/g
concentration at 180 day ([2]; rat, bone, other: intra-articular injection, 1 μg/knee, Day 180, read-out: Formula (I) concentration, Bone): 46.4 ng/g
concentration at 30 day ([2]; rat, bone, other: intra-articular injection, 3 μg/knee, Day 30, read-out: Formula (I) concentration, Bone): 738 ng/g
concentration at 90 day ([2]; rat, bone, other: intra-articular injection, 3 μg/knee, Day 90, read-out: Formula (I) concentration, Bone): 166 ng/g
concentration at 180 day ([2]; rat, bone, other: intra-articular injection, 3 μg/knee, Day 180, read-out: Formula (I) concentration, Bone): 15 ng/g
concentration at 30 day ([2]; rat, bone, other: intra-articular injection, 9 μg/knee, Day 30, read-out: Formula (I) concentration, Bone): 3290 ng/g
concentration at 180 day ([2]; rat, bone, other: intra-articular injection, 9 μg/knee, Day 180, read-out: Formula (I) concentration, Bone): 67 ng/g
concentration at 30 day ([2]; rat, bone, other: intra-articular, 0.3 μg/knee, Day 30, read-out: Formula (I) concentration, Bone): 25.8 ng/g
concentration at 90 day ([2]; rat, bone, other: intra-articular, 0.3 μg/knee, Day 90, read-out: Formula (I) concentration, Bone): 6.56 ng/g
concentration at 180 day ([2]; rat, bone, other: intra-articular, 0.3 μg/knee, Day 180, read-out: Formula (I) concentration, Bone): 19 ng/g
concentration at 30 day ([2]; rat, cartilage, other: intra-articular injection, 0.3 μg/knee, Day 30, read-out: Formula (I) concentration, Cartilage): 263 ng/g
concentration at 90 day ([2]; rat, cartilage, other: intra-articular injection, 0.3 μg/knee, Day 90, read-out: Formula (I) concentration, Cartilage): 78 ng/g
concentration at 180 day ([2]; rat, cartilage, other: intra-articular injection, 0.3 μg/knee, Day 180, read-out: Formula (I) concentration, Cartilage): 69.6 ng/g
concentration at 30 day ([2]; rat, cartilage, other: intra-articular injection, 3 μg/knee, Day 30, read-out: Formula (I) concentration, Cartilage): 2570 ng/g
concentration at 90 day ([2]; rat, cartilage, other: intra-articular injection, 3 μg/knee, Day 90, read-out: Formula (I) concentration, Cartilage): 645 ng/g
concentration at 180 day ([2]; rat, cartilage, other: intra-articular injection, 3 μg/knee, Day 180, read-out: Formula (I) concentration, Cartilage): 717 ng/g
concentration at 30 day ([2]; rat, cartilage, other: intra-articular injection, 9 μg/knee, Day 30, read-out: Formula (I) concentration, Cartilage): 3560 ng/g
concentration at 180 day ([2]; rat, cartilage, other: intra-articular injection, 9 μg/knee, Day 180, read-out: Formula (I) concentration, Cartilage): 224 ng/g
concentration at 30 day ([2]; rat, cartilage, other: intra-articular, 1 μg/knee, Day 30, read-out: Formula (I) concentration, Cartilage): 39 ng/g
concentration at 90 day ([2]; rat, cartilage, other: intra-articular, 1 μg/knee, Day 90, read-out: Formula (I) concentration, Cartilage): 243 ng/g
concentration at 180 day ([2]; rat, cartilage, other: intra-articular, 1 μg/knee, Day 180, read-out: Formula (I) concentration, Cartilage): 201 ng/g
plasma level ([2]; rat, all time points): undetectable
time retained in the knee joint above the target concentration level (˜30 nM) ([2]; rat, single IA 0.3, 1, 3 and 9 μg/knee): greater than 180 days
Formula (I) concentration, Bone ([2]; 0.3 μg/knee, Day 30): [51 nM]
Formula (I) concentration, Cartilage ([2]; 0.3 μg/knee, Day 30): [521 nM]
Formula (I) concentration, Plasma ([2]; 0.3 μg/knee, Day 30): BQL
Formula (I) concentration, Bone ([2]; 0.3 μg/knee, Day 90): [13 nM]
Formula (I) concentration, Cartilage ([2]; 0.3 μg/knee, Day 90): [154 nM]
Formula (I) concentration, Plasma ([2]; 0.3 μg/knee, Day 90): BQL
Formula (I) concentration, Bone ([2]; 0.3 μg/knee, Day 180): [38 nM]
Formula (I) concentration, Cartilage ([2]; 0.3 μg/knee, Day 180): [138 nM]
Formula (I) concentration, Plasma ([2]; 0.3 μg/knee, Day 180): BQL
Formula (I) concentration, Bone ([2]; 1 μg/knee, Day 30): [388 nM]
Formula (I) concentration, Cartilage ([2]; 1 μg/knee, Day 30): [774 nM]
Formula (I) concentration, Plasma ([2]; 1 μg/knee, Day 30): BQL
Formula (I) concentration, Bone ([2]; 1 μg/knee, Day 90): [88 nM]
Formula (I) concentration, Cartilage ([2]; 1 μg/knee, Day 90): [481 nM]
Formula (I) concentration, Plasma ([2]; 1 μg/knee, Day 90): BQL
Formula (I) concentration, Bone ([2]; 1 μg/knee, Day 180): [92 nM]
Formula (I) concentration, Cartilage ([2]; 1 μg/knee, Day 180): [398 nM]
Formula (I) concentration, Plasma ([2]; 1 μg/knee, Day 180): BQL
Formula (I) concentration, Bone ([2]; 3 μg/knee, Day 30): [1461 nM]
Formula (I) concentration, Cartilage ([2]; 3 μg/knee, Day 30): [5097 nM]
Formula (I) concentration, Plasma ([2]; 3 μg/knee, Day 30): BQL
Formula (I) concentration, Bone ([2]; 3 μg/knee, Day 90): [329 nM]
Formula (I) concentration, Cartilage ([2]; 3 μg/knee, Day 90): [1277 nM]
Formula (I) concentration, Plasma ([2]; 3 μg/knee, Day 90): BQL
Formula (I) concentration, Bone ([2]; 3 μg/knee, Day 180): [313 nM]
Formula (I) concentration, Cartilage ([2]; 3 μg/knee, Day 180): [1420 nM]
Formula (I) concentration, Plasma ([2]; 3 μg/knee, Day 180): BQL
Formula (I) concentration, Bone ([2]; 9 μg/knee, Day 30): [6520 nM]
Formula (I) concentration, Cartilage ([2]; 9 μg/knee, Day 30): [7055 nM]
Formula (I) concentration, Plasma ([2]; 9 μg/knee, Day 30): BQL
Formula (I) concentration, Plasma ([2]; 9 μg/knee, Day 90): BQL
Formula (I) concentration, Bone ([2]; 9 μg/knee, Day 180): [1335 nM]
Formula (I) concentration, Cartilage ([2]; 9 μg/knee, Day 180): [4437 nM]
Formula (I) concentration, Plasma ([2]; 9 μg/knee, Day 180): BQL
